# In ChEMBL document CHEMBL4177593, “Recently reported biological activities of pyrazole compounds” (Bioorg Med Chem, 2017):
# How the values were obtained:
# Bacillus subtilis = test: Antibacterial activity against Bacillus subtilis MTCC 441 by broth microdilution method; format: functional, organism-based
# Ovis aries = species: Ovis aries; test: Selectivity index, ratio of IC50 for ovine COX1 to IC50 for ovine COX2
# Rattus norvegicus [1] = test: Anti inflammatory activity in Wistar rat assessed as inhibition of carrageenan-induced paw edema at 5 mg/kg, po pretreated for 30 mins followed by carrageenan addition measured up to 4 hrs relative to control; format: functional
# Rattus norvegicus [2] = test: Ulcerogenic activity in albino rat assessed as ulcer index at 20 mg/kg, po administered daily for 3 successive days in two equal doses at 0 and 12 hrs measured at 6 hrs post last dose by magnifying lens based assay; format: toxicity, organism-based; conditions: in vivo
# MCF7 [3] = test: Antiproliferative activity against human MCF7 cells after 48 hrs by SRB assay; format: functional, cell-based; conditions: MCF7, 48 h
# A549 = test: Antiproliferative activity against human A549 cells after 48 hrs by SRB assay; format: functional, cell-based; conditions: A549, 48 h
# IMR-32 = test: Antiproliferative activity against human IMR32 cells after 48 hrs by SRB assay; format: functional, cell-based; conditions: IMR-32, 48 h
# HeLa = test: Antiproliferative activity against human HeLa cells after 48 hrs by SRB assay; format: functional, cell-based
# Candida albicans = test: Antifungal activity against Candida albicans after 48 hrs; format: functional
# Yarrowia lipolytica = test: Antifungal activity against Candida lipolytica after 48 hrs; format: functional
# [4] = Selectivity index, ratio of IC50 for rat seminal vesicles COX1 to IC50 for recombinant human COX2
# MCF7 [5] = test: Antiproliferative activity against human MCF7 cells after 48 hrs by MTT assay; format: functional, cell-based; conditions: MCF7, 48 h
# Escherichia coli [6] = test: Antibacterial activity against Escherichia coli MTCC 443 by broth microdilution method; format: functional
# Rattus norvegicus [7] = test: Anti inflammatory activity in Wistar rat assessed as carrageenan-induced paw edema at 10 mg/kg, po pretreated for 15 mins followed by carrageenan addition measured after 90 mins (reference value: 38.7%); format: functional
# Leishmania infantum = test: Antileishmanial activity against Leishmania infantum MCAN/BR/97/P142 promastigotes after 24 hrs; format: functional, organism-based; conditions: MCAN/BR/97/P142, 24 h
# Leishmania amazonensis [8] = test: Antileishmanial activity against Leishmania amazonensis MHOM/BR/77/LTB0016 promastigotes after 24 hrs; format: functional, organism-based; conditions: MHOM/BR/77/LTB0016, 24 h
# B16-F10 = test: Antiproliferative activity against mouse B16F10 cells after 48 hrs by MTT assay; format: functional, cell-based; conditions: B16-F10, 48 h
# Leishmania amazonensis [9] = test: Antileishmanial activity against Leishmania amazonensis amastigotes assessed as reduction in […] lode in late log phase after 24 hrs; format: functional, organism-based
# Leishmania amazonensis [10] = test: Antileishmanial activity against Leishmania amazonensis axenic amastigotes after 24 hrs; format: functional, organism-based
# Leishmania amazonensis [11] = test: Antileishmanial activity against Leishmania amazonensis amastigotes assessed as reduction in […] lode in early log phase after 24 hrs; format: functional, organism-based
# Pseudomonas aeruginosa = test: Antibacterial activity against Pseudomonas aeruginosa MTCC 1688; format: functional
# Escherichia coli [12] = test: Antibacterial activity against Escherichia coli MTCC 443; format: functional
# Rattus norvegicus [13] = test: Anti inflammatory activity in rat assessed as inhibition of carrageenan-induced hind paw edema at 50 mg/kg measured after 1 to 4 hrs by plethysmographic method relative to control; format: functional
# Leishmania amazonensis [14] = test: Antileishmanial activity against Leishmania amazonensis amastigotes after 24 hrs by MTT assay; format: functional, organism-based
# Staphylococcus aureus [15] = test: Antibacterial activity against Staphylococcus aureus MTCC 96; format: functional
# Streptococcus pyogenes = test: Antibacterial activity against Streptococcus pyogenes MTCC 442; format: functional
# Staphylococcus aureus [16] = test: Antibacterial activity against Staphylococcus aureus; format: functional
# [17] = tested on: Mycobacterium tuberculosis; test: Antitubercular activity against Mycobacterium tuberculosis H37Rv at 100 ug/ml by broth microdilution method relative to control; format: functional
# SMMC-7721 = test: Antiproliferative activity against human SMMC7721 cells after 48 hrs by MTT assay; format: functional, cell-based; conditions: SMMC-7721, 48 h
# SGC-7901 = test: Antiproliferative activity against human SGC7901 cells after 48 hrs by MTT assay; format: functional, cell-based; conditions: SGC-7901, 48 h
# MCF7 [18] = test: Antiproliferative activity against human MCF7 cells; format: functional, cell-based
# Fusarium oxysporum = test: Antifungal activity against Fusarium oxysporum f. sp. albedinis; format: functional, organism-based
# K562 = test: Growth inhibition in human K562 cells at 10^-5 mol/L relative to control; format: functional; conditions: read-out: GI
smiles,measurement,setting,value
CCn1cc(C(=O)O)c(=O)c2cc(F)c(N3CCNCC3)cc21 [NORFLOXACIN],IC50,Bacillus subtilis,100 µg/mL
same,MIC,Bacillus subtilis,100 µg/mL
COc1ccc(-c2cc(-c3ccccc3)nn2CC(=O)Nc2ccc(S(N)(=O)=O)cc2)cc1,Ratio IC50,Ovis aries,11.1
same,inhibition in vivo at 5 mg/kg,Rattus norvegicus [1],81%
same,UI,Rattus norvegicus [2],2.79
COC(=O)Nc1nc2cc(C(=O)c3cccs3)ccc2[nH]1 [NOCODAZOLE],IC50,MCF7 [3],1250 nM
same,IC50,A549,900 nM
same,IC50,IMR-32,1.3 µM
same,IC50,HeLa,1200 nM
COc1ccccc1C1CC(c2ccccc2)=NN1C(=N)N (stereo not drawn),MIC,Candida albicans,15.6 to 62.5 µg/mL
same,MIC,Yarrowia lipolytica,15.6 to 62.5 µg/mL
Cc1ccc(-c2cc(C(F)(F)F)nn2-c2ccc(S(N)(=O)=O)cc2)cc1,Ratio IC50,[4],0.0028
COc1ccc(/C=C/C(=O)OCc2cn(-c3ccccc3)nc2-c2ccc(OC)cc2)cc1,IC50,MCF7 [5],300 nM
Cc1n[nH]c(O)c1C(NNC(N)=O)c1ccc(O)cc1 (stereo not drawn),MIC,"Escherichia coli [6]; Escherichia coli, MTCC 443",0.25 µg/mL
Cc1cc(OCCOc2ccc(/C=N/c3ccccc3)cc2)n(-c2ccccc2)n1,Ratio IC50,[4],0.51
same,Activity,Rattus norvegicus [7],13.4%
Cc1nn(-c2ccc(S(=O)(=O)Nc3ccccc3)cc2)c(Cl)c1Br,IC50,Leishmania infantum,59 µM
same,IC50,Leishmania amazonensis [8],70 µM
C#Cc1cccc(Nc2ncnc3cc(OCCOC)c(OCCOC)cc23)c1 [ERLOTINIB],IC50,B16-F10,120 nM
same,IC50,MCF7 [5],80 nM
N=C(N)c1ccc(OCCCCCOc2ccc(C(=N)N)cc2)cc1 [PENTAMIDINE],IC50,Leishmania infantum,62 µM
same,IC50,Leishmania amazonensis [8],21 µM
Cc1ccc(/N=C/c2ccc(OCCOc3cc(C)nn3-c3ccccc3)cc2)cc1,Ratio IC50,[4],0.44
same,Activity,Rattus norvegicus [7],19.4%
Cc1cccc(NS(=O)(=O)c2ccccc2)c1-c1ccn(S(=O)(=O)c2ccccc2)n1,IC50,Leishmania amazonensis [9],41.3 µM
same,IC50,Leishmania amazonensis [10],56 µM
same,IC50,Leishmania amazonensis [11],6.7 µM
O=c1[nH]/c(=C\c2nc3cc(Cl)ccc3s2)s/c1=C\c1cn(-c2ccccc2)nc1-c1ccc(Cl)cc1,Activity,Pseudomonas aeruginosa,200 µg/mL
same,Activity,Escherichia coli [12],100 µg/mL
CS(=O)(=O)Nc1ccc([N+](=O)[O-])cc1Oc1ccccc1 [NIMESULIDE],Activity,Rattus norvegicus [7],23.4%
CC(=O)NC1=NN(C(C)=O)C(c2cn(-c3ccccc3)nc2-c2ccc(O)cc2)S1 (stereo not drawn),inhibition in vivo at 50 mg/kg,Rattus norvegicus [13],> 84.2%
COc1ccc(-n2ncc(-c3nnn[nH]3)c2N)cc1,IC50,Leishmania amazonensis [14],22.3 µM
O=c1[nH]/c(=C\c2nc3cc(Cl)ccc3s2)s/c1=C\c1cn(-c2ccccc2)nc1-c1ccc(Br)cc1,Activity,Staphylococcus aureus [15],100 µg/mL
same,Activity,Pseudomonas aeruginosa,200 µg/mL
same,Activity,Streptococcus pyogenes,100 µg/mL
CN[C@@H]1[C@H](O[C@H]2[C@H](O[C@H]3[C@H](O)[C@@H](O)[C@H](N=C(N)N)[C@@H](O)[C@@H]3N=C(N)N)O[C@@H](C)[C@]2(O)C=O)O[C@@H](CO)[C@H](O)[C@H]1O [STREPTOMYCIN],Activity,Staphylococcus aureus [16],500 µg/mL
same,Activity,Escherichia coli [6],500 µg/mL
CO[C@H]1/C=C/O[C@@]2(C)Oc3c(C)c(O)c4c(O)c(c(/C=N/N5CCN(C)CC5)c(O)c4c3C2=O)NC(=O)/C(C)=C\C=C\[C@H](C)[C@H](O)[C@@H](C)[C@@H](O)[C@@H](C)[C@H](OC(C)=O)[C@@H]1C [RIFAMPIN],inhibition at 100 µg/mL,[17],98%
O=C(O)Cc1ccccc1Nc1c(Cl)cccc1Cl [DICLOFENAC],inhibition in vivo at 50 mg/kg,Rattus norvegicus [13],86.7%
O=c1[nH]cc(F)c(=O)[nH]1 [FLUOROURACIL],IC50,SMMC-7721,19.2 µg/mL
same,IC50,SGC-7901,16 µg/mL
CC(=O)NC1=NN(C(C)=O)C(c2cn(-c3ccccc3)nc2-c2ccc([N+](=O)[O-])cc2)S1 (stereo not drawn),inhibition in vivo at 50 mg/kg,Rattus norvegicus [13],> 84.2%
COc1cc(/C=C/c2nnc(-c3cc(-c4ccc(Cl)cc4)n[nH]3)o2)cc(OC)c1OC,IC50,MCF7 [3],1800 nM
same,IC50,A549,1500 nM
same,IC50,IMR-32,3.2 µM
same,IC50,HeLa,2300 nM
Clc1ccc(-c2cc(-c3nnc(/C=C/c4ccc5c(c4)OCO5)o3)[nH]n2)cc1Cl,IC50,MCF7 [3],3900 nM
same,IC50,A549,2300 nM
same,IC50,IMR-32,4.1 µM
same,IC50,HeLa,2800 nM
COc1ccc2c(c1)c(CC(=O)O)c(C)n2C(=O)c1ccc(Cl)cc1 [INDOMETHACIN],UI,Rattus norvegicus [2],12.82
CC1(C)S[C@@H]2[C@H](NC(=O)[C@H](N)c3ccccc3)C(=O)N2[C@H]1C(=O)O [AMPICILLIN],Activity,Staphylococcus aureus [15],200 µg/mL
same,Activity,Streptococcus pyogenes,200 µg/mL
same,IC50,Bacillus subtilis,250 µg/mL
same,MIC,Bacillus subtilis,250 µg/mL
same,Activity,Escherichia coli [12],100 µg/mL
CC(=O)N1CCN(c2ccc(OCC3COC(Cn4ccnc4)(c4ccc(Cl)cc4Cl)O3)cc2)CC1 (stereo not drawn) [KETOCONAZOLE],IC50,Leishmania amazonensis [9],29.8 µM
same,IC50,Leishmania amazonensis [10],164 µM
same,IC50,Leishmania amazonensis [11],12.5 µM
CCCCCCCCCCn1nc(-c2cc(Br)ccc2Cl)c(C(N)=O)c1N,IC50,MCF7 [18],2500 nM
C/C(O)=C/C(=O)c1cc(C)n(C)n1,IC50,Fusarium oxysporum,55 nM
same,MIC,Fusarium oxysporum,0.055 µM
Cc1cc(C)n(C(=O)c2cc(-c3ccc(F)cc3F)ccc2O)n1,inhibition of growth at 10 µM,K562,70%
